Structures are written as SMILES.

`Cc1nc2scc(C)n2c(=O)c1CCN1CCC(C2(c3ccc(F)cc3)OCCO2)CC1`: the melting point (commonly the temperature of the solid-liquid transition) amounted to 140 °C.

In turn, `COc1cc(CC(=O)NCCOc2ccc(C(=O)O)cc2[N+](=O)[O-])ccc1N(C(N)=O)c1ccccc1C` had a melting point of 112 to 115 °C. `Cc1ccc2c(c1)C(c1ccc(C(C)C)cc1)C(C)(C)O2` (stereo not drawn) had a melting point of 65 to 66 °C.

Consider `CCc1cccc2c3c([nH]c12)C(CC)(CC(=O)OC)OCC3O` (stereo not drawn), for which the melting point was in the range of 117 to 118 °C.

`CCC1CN(Cc2c(C)cc(C)cc2C)CCN1` (stereo not drawn) showed a melting point of 111 to 114 °C. In the case of `CCC(C(=O)O)N(C(=O)c1cn(-c2ccc(F)cc2F)nc1C)c1ccc(OCC(C)(C)C)c(C#N)c1` (stereo not drawn) it was 110 °C.

Molecule `CCCCOc1ccc(CC(CC(=O)NO)S(=O)(=O)c2ccc(OC)cc2)cc1` (stereo not drawn) yielded a melting point of 55 to 60 °C. With `CC(=O)OC1CC(OC(C)=O)C2(C)C(C1)C(Br)C(Br)C1C3CCC(C(C)CCCC(C)C)C3(C)CCC12` (stereo not drawn) the figure was 155 to 156 °C; with `C[Si](C)(C)CCOC(=O)c1ccc(F)cc1N`, 43 to 44 °C. Consider `C=CCCn1c2ccc(OC)cc2c2c3c(c(-c4ccccc4Cl)cc21)C(=O)N(Cc1ccc(OC)cc1OC)C3=O`, for which the melting point was in the range of 161 to 164 °C. `COc1cccc(Sc2c(C)n(CC(=O)O)c3ccc(NS(C)(=O)=O)cc23)c1` yielded a melting point of 292 °C. With `CCc1ccc2c(c1)C(O)Cc1ccc(F)cc1S2` (stereo not drawn) the figure was 97 °C. With `Cc1cccc(S(=O)(=O)Cc2c(C(F)(F)F)n[nH]c2O)c1` the figure was 130 to 133 °C; with `Clc1nc(-n2cnc(-c3ccccc3)c2-c2ccccc2)c2[nH]cnc2n1`, 278 °C. With `COc1c(C)c2c(c(OS(=O)(=O)c3ccc(C)cc3)c1CC1=C(C)C(O)CC1)C(=O)OC2` (stereo not drawn), the melting point lay within 108 to 112 °C. On to `O=C(c1ccc(F)cc1)C1CCN(CCN(C(=O)c2cccc([N+](=O)[O-])c2)c2ccc(F)cc2)CC1`, for which the melting point was in the range of 97 to 113 °C. `CCCCCCCCCCCCN(CCCCCCCCCCCC)C(=O)c1c(C)cc(C)c(C)c1O` yielded a melting point of 56 °C. With `Oc1c(C(=S)NCc2ccc(Cl)cc2)cnc2ccc(I)cc12`, the melting point was in the range of 275 to 276 °C. With `CCCCc1nn2cccc(C(=O)OC)c2c1Cc1ccc(Br)cc1` the figure was 80 to 85 °C; with `Cc1nc(-c2ccc(=O)n(C(C)C)n2)c(-c2ccccc2)nc1N`, 208 to 210 °C; with `Cc1nnc2n1-c1ccc(C#CCN3Cc4ccccc4C3=O)cc1C(c1ccccc1F)=NC2`, 165 to 168 °C. In the case of `O=C(Cc1ccsc1)N1C(=O)OC[C@@H]1Cc1ccccc1` it was 80 to 81 °C; in that of `Cc1ccc(S(=O)(=O)N(c2ccc(F)cc2[N+](=O)[O-])C(C)C)cc1`, 129 to 130 °C; in that of `CCC1CC2(C)C(CCC3C2CCC2(C)C(OC)CCC32)CC1=O` (stereo not drawn), 105 to 107 °C. For the molecule `Cn1cc(C2=C(c3c4n(c5ccccc35)CC(NC(=O)OC(C)(C)C)CC4)C(=O)NC2=O)c2ccccc21` (stereo not drawn), the melting point fell in the range of 159 to 163 °C.

Turning to `CC(C)c1ccc(OCCCCCCCCCCCCC(Cl)(Cl)C(=O)O)cc1`, the melting point fell in the range of 47 to 49 °C. In the case of `CCOc1nn(Cc2ccc(Cl)cc2Cl)cc1CCCO` it was 58 to 59 °C. `CCOC(=O)Nc1c(F)cc(Cl)c2c1OC(C)(C)C2` came in with a melting point of 114 to 115 °C. For `Oc1ccc(CCNc2ncnc3scnc23)cc1`, the melting point lay in the range of 161 to 168 °C. `CC(Cc1ccc(OCc2ccccc2)cc1)NCC(O)c1cccc(Cl)c1` (stereo not drawn) registered a melting point of 95 to 99 °C. The molecule `CC1(C)N(CC(N)=O)C(=O)CN1C(=O)CCl` registered a melting point of 214 to 216 °C.

The molecule `CN(NC(=O)c1ccccc1C(=O)O)c1nc(-c2ccccc2)cs1` came in with a melting point of 122 to 124 °C.

Regarding `COc1ccc(C(=O)Nc2ccccc2Nc2ccccc2)cc1`, the melting point lay in the range of 148 to 150 °C. The molecule `CCOC(=O)C1=C(COCc2nc(CCN)cs2)NC(C)=C(C(=O)OC)C1c1cccc(Cl)c1Cl` (stereo not drawn) came in with a melting point of 110 to 112 °C. For the molecule `N#Cc1cccc(-c2cnc3cnc(-c4ccc(O)cc4)nc3c2)c1`, the melting point is more than 268 °C. With `Cn1nc(-c2cccc(-n3ncc4cc(C(C)(C)C)cc(F)c4c3=O)c2CO)cc(Nc2cnc(CNC3CCC3)cn2)c1=O` the figure was 163 to 167 °C. With `COc1cc2c(c3c1OC(C)(C)C3)C(c1cccc(NC(=O)Cc3ccncc3)c1)=NC(C)(C)C2`, the melting point was 124 to 128 °C. In turn, `CN1C(=O)C(NC(=O)CC23CC4CC(CC(C)(C4)C2)C3)N=C(c2ccccc2)c2ccccc21` (racemic) showed a melting point of 195 to 196 °C. Regarding `ON=Cc1cccc(OCc2ccccc2)c1`, the melting point was in the range of 58 to 59 °C. For the molecule `Cc1cc2cc(Cl)ccc2n1Cc1ccccc1`, the melting point fell in the range of 75 to 76 °C. In the case of `CCOC(=O)C=Cc1ccc(OC(C)C)c(OC)c1` it was 103 to 104 °C; in that of `CCCCCc1c(C(C)C)nc(C(C)C)c(CO)c1-c1ccc(F)c(C(O)c2ccc(F)cc2)c1` (stereo not drawn), 118 to 120 °C. For `COc1ccc2nc(COc3ccc4c(c3)C(SCCC(=O)O)c3ccccc3CO4)ccc2c1` (stereo not drawn), the melting point lay in the range of 174 to 175 °C. In the case of `Cc1[nH]c(C=O)c(C)c1-c1nc2ccc(C(=O)c3ccccc3)cc2[nH]1` it was 253 to 255 °C; in that of `CC1(C)[C@@]2(C)CC[C@]1(NCC(=O)N1CCC[C@H]1C#N)C(=O)OC2`, 174 to 177 °C; in that of `O=c1n(CCCC2CCCC2)ccn1-c1ccc([N+](=O)[O-])cc1`, 105 to 107 °C. `CCCNC1=CC(=O)c2c(OC)ccc(OC)c2C1=O` returned a melting point of 175 to 176 °C.

For `CC(C)(C)N1CC(=O)Nc2ccc(I)cc2C1=O`, the melting point lay in the range of 230 to 232 °C. `CCOC(=O)N1CCn2c(nc(-c3ccncn3)cc2=O)C(NCc2ccc(OC)cc2)C1` (racemic) gave a melting point of 217 to 219 °C. In the case of `COC(=O)C(C)(C)Nc1cc(Cl)ccc1[N+](=O)[O-]` it was 87 to 89 °C; in that of `Cn1c([N+](=O)[O-])cnc1COc1ccc(C#N)cc1`, 130 °C. In the case of `CC(C)(C)C(=O)Nc1ccc(C(F)(F)F)cc1C=O` it was 69 to 73 °C. In the case of `Nc1cc(OCCCl)ccc1F` it was 42 to 43 °C. The molecule `C=Cc1ncc2c(c1O)COC2C` (stereo not drawn) gave a melting point of 237 to 238 °C. In the case of `COc1cc(Cc2cnc(N)nc2N)c2c(c1OC)OCC=C2` it was 232 to 234 °C. Molecule `O=C1N=c2ccc(NCCCc3ccccc3)cc2=N1` registered a melting point of 205 to 206 °C. The molecule `CCCc1nnc2c(=O)n(C)c3ccc(C(F)(F)F)cc3n12` returned a melting point of 257 to 258 °C.

`CC(C)(C)OC(=O)N1C(=O)CCC1=O` came in with a melting point of 76 to 78 °C.

`CCOC(=O)COc1ccc(NC(=O)c2csc(NC(=N)N)n2)cc1` registered a melting point of 206 °C. In turn, `CNCC(O)COc1ccc(C#N)cc1` (stereo not drawn) yielded a melting point of 100 to 102 °C. With `COCc1nc(N)nc(SC)n1`, the melting point is 134 to 136 °C. The molecule `O=C(c1ccccc1)c1ccc([N+](=O)[O-])c(CO)c1` showed a melting point of 71.3 °C.

For `CCOC(=O)c1ccc2c(c1)N(C(=O)C(C)Br)c1ccccc1C=C2` (stereo not drawn), the melting point stood at 163 °C. On to `Cc1cc(C(=S)CBr)ccc1O`, for which the melting point fell in the range of 118 to 120 °C. As for `O=C1COc2ccc(C3=Cc4ccccc4OC3c3ccccc3)cc2N1` (stereo not drawn), the melting point lay within 246 to 249 °C.

`COC(=O)c1ccccc1-c1cc(F)cc(OCc2ccc3c(-c4ccoc4)cc(C#N)nc3c2)c1` had a melting point of 152 to 154 °C. Molecule `CC1(C)CC(=O)c2cc(OCC(F)(F)F)c(OCC(F)(F)F)cc2O1` gave a melting point of 92 to 93 °C.

`Cc1oc(-c2ccccc2)nc1COc1ccc(CCOS(C)(=O)=O)cc1` showed a melting point of 66 to 67 °C. Molecule `O=c1ccn(C2C=CC(COC(c3ccccc3)(c3ccccc3)c3ccccc3)O2)c(=O)[nH]1` (stereo not drawn) showed a melting point of 188 to 191 °C. Turning to `O=C(OCC1CCCCC1)c1ncn2c1[C@@H]1CCCN1C(=O)c1c(Cl)cccc1-2`, the melting point is 123 to 124 °C. For `O=C(c1ccc(F)cc1)N1CCC[C@H](c2nc(-c3ccc[nH]3)no2)C1`, the melting point is 130 to 135 °C. With `CC[C@@H](NC(=O)N1CC(=O)NC[C@@H](Cc2cc(Cl)ccc2OC)C1=O)c1cncc(C(=O)O)c1`, the melting point lay in the range of 138 to 140 °C. On to `On1nc(Br)c(Cl)c1Br`, for which the melting point amounted to 160 °C. The molecule `CC(C)(C)OC(=O)CN1C(=O)c2ccccc2S1(=O)=O` showed a melting point of 130 to 132 °C. Turning to `O=S1(=O)c2cccc3cccc(c23)N1CCCN1CCN(c2ccccc2O)CC1`, the melting point amounted to 128 °C.

Consider `COCCc1nc2c(N)nc3ccccc3c2n1CCOCCN(C)C(=O)Nc1ccccc1`, for which the melting point was in the range of 185 to 186 °C. With `O=C(c1ccc(OCCN2CCCC2)cc1)c1c(-c2ccc(O)cc2)sc2cc(O)ccc12`, the melting point lay in the range of 146 to 147 °C. The molecule `COc1ccc(CCNC(=O)CCCCC(=O)NCCNc2ccccc2)cc1OC` yielded a melting point of 109 to 111 °C. On to `COc1cc(C(=O)CS(C)(=O)=O)cc(OC)c1N(C)C(C)=O`, for which the melting point lay within 141 to 142 °C. With `CCc1ccccc1-n1c(=O)[nH]c2c(C(N)=O)nc(-c3cccc(O)c3)nc21` the figure was 355 to 357 °C; with `COc1cc(C(=O)c2ncc3ccccn23)ccc1[N+](=O)[O-]`, 183 °C; with `CC(C)(C)C(=O)C(C(Cl)C(Cl)(Cl)Cl)n1cncn1` (stereo not drawn), 111 to 113 °C. The molecule `CSC1NC(=O)N(C(C)C)C(=O)N1C` (stereo not drawn) returned a melting point of 73 to 75 °C.

Take `O/N=C1/c2ccccc2OC12CCCCCC2`: the melting point was in the range of 104 to 106 °C. As to `NNc1nnc(C=Cc2ccc([N+](=O)[O-])o2)s1`, the melting point is 205 to 206 °C. `COC(=O)C=C(C)c1ccc(CCNCC(O)c2ccccc2)cc1` (stereo not drawn): the melting point lay within 120 to 125 °C. With `CN(C)c1cccc(Oc2ncccc2C(=O)NCc2ccccc2Cl)c1`, the melting point lay in the range of 85 to 87 °C. Consider `CC(=O)c1c(C)[nH]c(Cc2ccccc2)c1C`, for which the melting point lay within 166 to 167 °C.

The values above are taken from a melting point compilation (Tetko et al.; mined from patent text by program, amines drawn as free bases though some values may be those of a salt).
